Columns and labels:
Test in all cases: cells
COLO-800 = type: functional, cell-based, Homo sapiens; settings: Homo sapiens, COLO-800;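 further: growth inhibition of COLO-800 cells, read out with a cell viability assay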
Description: SANGER: Inhibition of human COLO-800 cell growth in a cell viability assay.

COR-L88 = type: functional, cell-based, Homo sapiens; settings: Homo sapiens, COR-L88;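 further: growth inhibition of COR-L88 cells, read out with a cell viability assay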
Description: SANGER: Inhibition of human COR-L88 cell growth in a cell viability assay.

CTB-1 = type: functional, cell-based, Homo sapiens; settings: Homo sapiens, CTB-1
Description: SANGER: Inhibition of human CTB-1 cell growth in a cell viability assay.

CTV-1 = type: functional, cell-based, Homo sapiens; settings: Homo sapiens, CTV-1;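 further: growth inhibition of the cell line, read out with a cell viability assay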
Description: SANGER: Inhibition of human CTV-1 cell growth in a cell viability assay.

D-263MG = type: functional, cell-based, Homo sapiens; settings: Homo sapiens, D-263MG
Description: SANGER: Inhibition of human D-263MG cell growth in a cell viability assay.

DJM-1 = type: functional, cell-based, Homo sapiens; settings: Homo sapiens, DJM-1;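 further: growth inhibition of human DJM-1 cells, read out by a cell viability assay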
Description: SANGER: Inhibition of human DJM-1 cell growth in a cell viability assay.

EM-2 = type: functional, cell-based, Homo sapiens; settings: Homo sapiens, EM-2;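 further: growth inhibition of EM-2 cells, read out with a cell viability assay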
Description: SANGER: Inhibition of human EM-2 cell growth in a cell viability assay.

ES6 = type: functional, cell-based; settings: Homo sapiens;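 further: growth inhibition of human ES6 cells, read out with a cell viability assay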
Description: SANGER: Inhibition of human ES6 cell growth in a cell viability assay.

EW-11 = type: functional, cell-based, Homo sapiens; settings: Homo sapiens, EW-11;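 further: growth inhibition of human EW-11 cells, measured with a cell viability assay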
Description: SANGER: Inhibition of human EW-11 cell growth in a cell viability assay.

GI-ME-N = type: functional, cell-based, Homo sapiens; settings: Homo sapiens, GI-ME-N;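 further: growth inhibition of human GI-ME-N cells, read out with a cell viability assay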
Description: SANGER: Inhibition of human GI-ME-N cell growth in a cell viability assay.

IA-LM = type: functional, cell-based; settings: Homo sapiens;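 further: cell viability assay measuring growth inhibition of human IA-LM cells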
Description: SANGER: Inhibition of human IA-LM cell growth in a cell viability assay.

IST-MEL1 = type: functional, cell-based, Homo sapiens; settings: Homo sapiens, IST-MEL1;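 further: growth inhibition of the cell line, read out with a cell viability assay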
Description: SANGER: Inhibition of human IST-MEL1 cell growth in a cell viability assay.

IST-SL1 = type: functional, cell-based, Homo sapiens; settings: Homo sapiens, IST-SL1;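 further: growth inhibition of human IST-SL1 cells, read out with a cell viability assay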
Description: SANGER: Inhibition of human IST-SL1 cell growth in a cell viability assay.

J-RT3-T3-5 = type: functional, cell-based, Homo sapiens; settings: Homo sapiens, J-RT3-T3-5;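 further: cell viability assay measuring growth inhibition of human J-RT3-T3-5 cells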
Description: SANGER: Inhibition of human J-RT3-T3-5 cell growth in a cell viability assay.

JVM-2 = type: functional, cell-based, Homo sapiens; settings: Homo sapiens, JVM-2;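 further: growth inhibition of JVM-2 cells determined by a cell viability assay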
Description: SANGER: Inhibition of human JVM-2 cell growth in a cell viability assay.

KARPAS-45 = type: functional, cell-based, Homo sapiens; settings: Homo sapiens, KARPAS-45;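 further: inhibition of cell line growth, read out through a viability assay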
Description: SANGER: Inhibition of human KARPAS-45 cell growth in a cell viability assay.

KLE = type: functional, cell-based; settings: Homo sapiens;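 further: growth inhibition of human KLE cells, read out with a cell viability assay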
Description: SANGER: Inhibition of human KLE cell growth in a cell viability assay.

KNS-42 = type: functional, cell-based; settings: Homo sapiens;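 further: growth inhibition of KNS-42 cells, read out with a cell viability assay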
Description: SANGER: Inhibition of human KNS-42 cell growth in a cell viability assay.

KNS-81-FD = type: functional, cell-based, Homo sapiens; settings: Homo sapiens, KNS-81-FD;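 further: growth inhibition of KNS-81-FD cells, read out with a cell viability assay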
Description: SANGER: Inhibition of human KNS-81-FD cell growth in a cell viability assay.

LS-1034 = type: functional, cell-based, Homo sapiens; settings: Homo sapiens, LS-1034
Description: SANGER: Inhibition of human LS-1034 cell growth in a cell viability assay.

LS-411N = type: functional, cell-based, Homo sapiens; settings: Homo sapiens, LS-411N
Lu-65 = type: functional, cell-based, Homo sapiens; settings: Homo sapiens, Lu-65;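 further: growth inhibition of Lu-65 cancer cells, read out by a cell viability assay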
Description: SANGER: Inhibition of human LU-65 cell growth in a cell viability assay.

MFM-223 = type: functional, cell-based, Homo sapiens; settings: Homo sapiens, MFM-223
Description: SANGER: Inhibition of human MFM-223 cell growth in a cell viability assay.

MOLT-4 = type: functional, cell-based, Homo sapiens; settings: Homo sapiens, MOLT-4;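 further: growth inhibition of MOLT-4 cells, determined with a cell viability readout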
Description: SANGER: Inhibition of human MOLT-4 cell growth in a cell viability assay.

MPP-89 = type: functional, cell-based, Homo sapiens; settings: Homo sapiens, MPP-89;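 further: growth inhibition of human MPP-89 cells, read out with a cell viability assay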
Description: SANGER: Inhibition of human MPP-89 cell growth in a cell viability assay.

MS-1 = type: functional, cell-based, Homo sapiens; settings: Homo sapiens, MS-1;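 further: growth inhibition of MS-1 cells, read out by cell viability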
Description: SANGER: Inhibition of human MS-1 cell growth in a cell viability assay.

MZ7-mel = type: functional, cell-based, Homo sapiens; settings: Homo sapiens, MZ7-mel;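 further: growth inhibition of human MZ7-mel cells, measured by a cell viability assay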
Description: SANGER: Inhibition of human MZ7-mel cell growth in a cell viability assay.

NB10 = type: functional, cell-based, Homo sapiens; settings: Homo sapiens, NB10;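 further: growth inhibition of NB10 cells, read out by a cell viability assay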
Description: SANGER: Inhibition of human NB10 cell growth in a cell viability assay.

NCI-H1650 = type: functional, cell-based, Homo sapiens; settings: Homo sapiens, NCI-H1650;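 further: growth inhibition of human NCI-H1650 cells measured by a cell viability assay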
Description: SANGER: Inhibition of human NCI-H1650 cell growth in a cell viability assay.

NCI-H1770 = type: functional, cell-based, Homo sapiens; settings: Homo sapiens, NCI-H1770;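 further: growth inhibition of NCI-H1770 cells determined with a viability readout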
Description: SANGER: Inhibition of human NCI-H1770 cell growth in a cell viability assay.

NCI-H209 = type: functional, cell-based, Homo sapiens; settings: Homo sapiens, NCI-H209;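 further: growth inhibition of human NCI-H209 cells, measured by a cell viability assay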
Description: SANGER: Inhibition of human NCI-H209 cell growth in a cell viability assay.

NCI-H23 = type: functional, cell-based, Homo sapiens; settings: Homo sapiens, NCI-H23;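 further: cell viability assay measuring growth inhibition of NCI-H23 cells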
Description: SANGER: Inhibition of human NCI-H23 cell growth in a cell viability assay.

NCI-H69 = type: functional, cell-based, Homo sapiens; settings: Homo sapiens, NCI-H69;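 further: growth inhibition of the cell line, read out with a cell viability assay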
Description: SANGER: Inhibition of human NCI-H69 cell growth in a cell viability assay.

SNU1 = type: functional, cell-based, Homo sapiens; settings: Homo sapiens, SNU1;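 further: growth inhibition of human NCI-SNU-1 cells, measured with a cell viability assay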
Description: SANGER: Inhibition of human NCI-SNU-1 cell growth in a cell viability assay.

SNU-5 = type: functional, cell-based, Homo sapiens; settings: Homo sapiens, SNU-5;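 further: cell viability readout used to measure growth inhibition in human NCI-SNU-5 cells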
Description: SANGER: Inhibition of human NCI-SNU-5 cell growth in a cell viability assay.

NH-12 = type: functional, cell-based, Homo sapiens; settings: Homo sapiens, NH-12;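 further: growth inhibition of NH-12 cells, read out with a cell viability assay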
Description: SANGER: Inhibition of human NH-12 cell growth in a cell viability assay.

ONS-76 = type: functional, cell-based, Homo sapiens; settings: Homo sapiens, ONS-76;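 further: growth inhibition of human ONS-76 cells, read out with a cell viability assay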
Description: SANGER: Inhibition of human ONS-76 cell growth in a cell viability assay.

RPMI-8866 = type: functional, cell-based, Homo sapiens; settings: Homo sapiens, RPMI-8866
Description: SANGER: Inhibition of human RPMI-8866 cell growth in a cell viability assay.

SF-539 = type: functional, cell-based, Homo sapiens; settings: Homo sapiens, SF-539;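 further: Read-out is a cell viability assay, with IC50 reflecting inhibition of cell growth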
Description: SANGER: Inhibition of human SF539 cell growth in a cell viability assay.

SK-N-DZ = type: functional, cell-based, Homo sapiens; settings: Homo sapiens, SK-N-DZ; read-out: IC50;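 further: growth inhibition of the cancer cell line, read out through a viability assay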
Description: SANGER: Inhibition of human SK-N-DZ cell growth in a cell viability assay.

SK-N-FI = type: functional, cell-based, Homo sapiens; settings: Homo sapiens, SK-N-FI;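 further: cell viability assay measuring growth inhibition of human SK-N-FI cells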
Description: SANGER: Inhibition of human SK-N-FI cell growth in a cell viability assay.

SNU-C2B = type: functional, cell-based; settings: Homo sapiens;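 further: cell viability readout used to measure compound-driven suppression of SNU-C2B cell proliferation, IC50 marking half-maximal growth inhibition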
Description: SANGER: Inhibition of human SNU-C2B cell growth in a cell viability assay.

SW872 = type: functional, cell-based, Homo sapiens; settings: Homo sapiens, SW872;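 further: growth inhibition of SW872 cells, read out by a viability assay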
Description: SANGER: Inhibition of human SW872 cell growth in a cell viability assay.

697 = type: functional, cell-based, Homo sapiens; settings: Homo sapiens
Description: SANGER: Inhibition of human 697 cell growth in a cell viability assay.

A4-Fuk = type: functional, cell-based, Homo sapiens; settings: Homo sapiens, A4-Fuk;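 further: growth inhibition of A4-Fuk cells, read out by a cell viability assay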
Description: SANGER: Inhibition of human A4-Fuk cell growth in a cell viability assay.

BT-474 = type: functional, cell-based, Homo sapiens; settings: Homo sapiens, BT-474
Description: SANGER: Inhibition of human BT-474 cell growth in a cell viability assay.

U-266 = type: functional, cell-based, Homo sapiens; settings: Homo sapiens, U-266
Description: SANGER: Inhibition of human U-266 cell growth in a cell viability assay.

UACC-257 = type: functional, cell-based, Homo sapiens; settings: Homo sapiens, UACC-257
Description: SANGER: Inhibition of human UACC-257 cell growth in a cell viability assay.

no-11 = type: functional, cell-based, Homo sapiens; settings: Homo sapiens;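 further: growth inhibition of human NO-11 cells, read out with a cell viability assay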
Description: SANGER: Inhibition of human no-11 cell growth in a cell viability assay.

COLO-668 = type: functional, cell-based, Homo sapiens; settings: Homo sapiens, COLO-668
Description: SANGER: Inhibition of human COLO-668 cell growth in a cell viability assay.

`NC(=O)c1ccc(N(C(N)=O)c2c(F)cccc2F)nc1-c1ccc(F)cc1F` [VX-702] gave an IC50 (COLO-800) greater than 2 µM, an IC50 (COR-L88) of 0.335 µM and an IC50 (CTB-1) greater than 2 µM. It also gave an IC50 (CTV-1) of 0.184 µM, an IC50 (D-263MG) greater than 2 µM and an IC50 (DJM-1) greater than 2 µM. It also gave an IC50 (EM-2) greater than 2 µM, an IC50 (ES6) greater than 2 µM and an IC50 (EW-11) greater than 2 µM. The IC50 (GI-ME-N) was greater than 2 µM, the IC50 (IA-LM) was greater than 2 µM and the IC50 (IST-MEL1) was greater than 2 µM. It also gave an IC50 (IST-SL1) greater than 2 µM, an IC50 (J-RT3-T3-5) greater than 2 µM and an IC50 (JVM-2) of 0.083 µM. The IC50 (KARPAS-45) was 0.148 µM, the IC50 (KLE) was greater than 2 µM and the IC50 (KNS-42) was greater than 2 µM. The IC50 (KNS-81-FD) was greater than 2 µM, the IC50 (LS-1034) was greater than 2 µM and the IC50 (LS-411N) was greater than 2 µM. It also gave an IC50 (Lu-65) greater than 2 µM, an IC50 (MFM-223) greater than 2 µM and an IC50 (MOLT-4) greater than 2 µM. For the same compound, the IC50 (MPP-89) was greater than 2 µM, the IC50 (MS-1) was greater than 2 µM and the IC50 (MZ7-mel) was greater than 2 µM. It also gave an IC50 (NB10) greater than 2 µM, an IC50 (NCI-H1650) greater than 2 µM and an IC50 (NCI-H1770) greater than 2 µM. It also gave an IC50 (NCI-H209) of 0.176 µM, an IC50 (NCI-H23) greater than 2 µM and an IC50 (NCI-H69) of 0.0994 µM. It also gave an IC50 (SNU1) greater than 2 µM, an IC50 (SNU-5) greater than 2 µM and an IC50 (NH-12) greater than 2 µM. For the same compound, the IC50 (ONS-76) was greater than 2 µM, the IC50 (RPMI-8866) was greater than 2 µM and the IC50 (SF-539) was greater than 2 µM. The IC50 (SK-N-DZ) was greater than 2 µM, the IC50 (SK-N-FI) was greater than 2 µM and the IC50 (SNU-C2B) was greater than 2 µM. It also gave an IC50 (SW872) greater than 2 µM, an IC50 697 greater than 2 µM and an IC50 (A4-Fuk) greater than 2 µM. The IC50 (BT-474) was greater than 2 µM, the IC50 (U-266) was greater than 2 µM and the IC50 (UACC-257) was 1.2 µM. It also gave an IC50 (no-11) greater than 2 µM and an IC50 (COLO-668) greater than 2 µM.
`C=CC(=O)N1CCCC(Nc2nc(Nc3ccc(N(C)C(=O)CC)cc3)nc3[nH]cnc23)C1` (stereo not given) gave an IC50 (COLO-800) greater than 10.2 µM, an IC50 (COR-L88) greater than 10.2 µM and an IC50 (CTB-1) greater than 10.2 µM. For the same compound, the IC50 (CTV-1) was greater than 10.2 µM, the IC50 (D-263MG) was greater than 10.2 µM and the IC50 (DJM-1) was greater than 10.2 µM. For the same compound, the IC50 (EM-2) was greater than 10.2 µM, the IC50 (ES6) was greater than 10.2 µM and the IC50 (EW-11) was greater than 10.2 µM. For the same compound, the IC50 (GI-ME-N) was greater than 10.2 µM, the IC50 (IA-LM) was greater than 10.2 µM and the IC50 (IST-MEL1) was greater than 10.2 µM. For the same compound, the IC50 (IST-SL1) was greater than 10.2 µM, the IC50 (J-RT3-T3-5) was greater than 10.2 µM and the IC50 (JVM-2) was greater than 10.2 µM. The IC50 (KARPAS-45) was greater than 10.2 µM, the IC50 (KLE) was greater than 10.2 µM and the IC50 (KNS-42) was greater than 10.2 µM. It also gave an IC50 (KNS-81-FD) greater than 10.2 µM, an IC50 (LS-1034) greater than 10.2 µM and an IC50 (LS-411N) greater than 10.2 µM. The IC50 (Lu-65) was greater than 10.2 µM, the IC50 (MFM-223) was greater than 10.2 µM and the IC50 (MOLT-4) was greater than 10.2 µM. The IC50 (MPP-89) was greater than 10.2 µM, the IC50 (MS-1) was greater than 10.2 µM and the IC50 (MZ7-mel) was greater than 10.2 µM. For the same compound, the IC50 (NB10) was greater than 10.2 µM, the IC50 (NCI-H1650) was greater than 10.2 µM and the IC50 (NCI-H1770) was greater than 10.2 µM. The IC50 (NCI-H209) was greater than 10.2 µM, the IC50 (NCI-H23) was greater than 10.2 µM and the IC50 (NCI-H69) was greater than 10.2 µM. The IC50 (SNU1) was greater than 10.2 µM, the IC50 (SNU-5) was greater than 10.2 µM and the IC50 (NH-12) was greater than 10.2 µM. The IC50 (ONS-76) was greater than 10.2 µM, the IC50 (RPMI-8866) was greater than 10.2 µM and the IC50 (SF-539) was greater than 10.2 µM. The IC50 (SK-N-DZ) was greater than 10.2 µM, the IC50 (SK-N-FI) was greater than 10.2 µM and the IC50 (SNU-C2B) was greater than 10.2 µM. The IC50 (SW872) was greater than 10.2 µM, the IC50 697 was greater than 10.2 µM and the IC50 (A4-Fuk) was greater than 10.2 µM. For the same compound, the IC50 (BT-474) was greater than 10.2 µM, the IC50 (U-266) was greater than 10.2 µM and the IC50 (UACC-257) was greater than 10.2 µM. It also gave an IC50 (no-11) greater than 10.2 µM and an IC50 (COLO-668) greater than 10.2 µM.
For `O=S(=O)(O)c1ccc2cc(/N=N/c3cc(S(=O)(=O)O)c4cccnc4c3O)ccc2c1`, the IC50 (COLO-800) was greater than 16 µM, the IC50 (COR-L88) was greater than 16 µM and the IC50 (CTB-1) was greater than 16 µM. The IC50 (CTV-1) was greater than 16 µM, the IC50 (D-263MG) was greater than 16 µM and the IC50 (DJM-1) was greater than 16 µM. It also gave an IC50 (EM-2) greater than 16 µM, an IC50 (ES6) greater than 16 µM and an IC50 (EW-11) greater than 16 µM. The IC50 (GI-ME-N) was greater than 16 µM, the IC50 (IA-LM) was greater than 16 µM and the IC50 (IST-MEL1) was greater than 16 µM. For the same compound, the IC50 (IST-SL1) was greater than 16 µM, the IC50 (J-RT3-T3-5) was greater than 16 µM and the IC50 (JVM-2) was greater than 16 µM. The IC50 (KARPAS-45) was greater than 16 µM, the IC50 (KLE) was greater than 16 µM and the IC50 (KNS-42) was greater than 16 µM. For the same compound, the IC50 (KNS-81-FD) was greater than 16 µM, the IC50 (LS-1034) was greater than 16 µM and the IC50 (LS-411N) was greater than 16 µM. The IC50 (Lu-65) was greater than 16 µM, the IC50 (MFM-223) was greater than 16 µM and the IC50 (MOLT-4) was greater than 16 µM. The IC50 (MPP-89) was greater than 16 µM, the IC50 (MS-1) was greater than 16 µM and the IC50 (MZ7-mel) was greater than 16 µM. It also gave an IC50 (NB10) greater than 16 µM, an IC50 (NCI-H1650) greater than 16 µM and an IC50 (NCI-H1770) greater than 16 µM. It also gave an IC50 (NCI-H209) greater than 16 µM, an IC50 (NCI-H23) greater than 16 µM and an IC50 (NCI-H69) greater than 16 µM. The IC50 (SNU1) was greater than 16 µM, the IC50 (SNU-5) was greater than 16 µM and the IC50 (NH-12) was greater than 16 µM. It also gave an IC50 (ONS-76) greater than 16 µM, an IC50 (RPMI-8866) greater than 16 µM and an IC50 (SF-539) greater than 16 µM. The IC50 (SK-N-DZ) was greater than 16 µM, the IC50 (SK-N-FI) was greater than 16 µM and the IC50 (SNU-C2B) was greater than 16 µM. The IC50 (SW872) was greater than 16 µM, the IC50 697 was greater than 16 µM and the IC50 (A4-Fuk) was greater than 16 µM. For the same compound, the IC50 (BT-474) was greater than 16 µM, the IC50 (U-266) was greater than 16 µM and the IC50 (UACC-257) was greater than 16 µM. The IC50 (no-11) was greater than 16 µM and the IC50 (COLO-668) was greater than 16 µM.

Reference: ChEMBL document CHEMBL1201861, “Genomics of Drug Sensitity in Cancer screening data, Wellcome Trust Sanger Institute”
